Data from patent US8192962B2, “Processes for detecting toxic substances” (Daikin Industries, Ltd., priority 2001, dated 2012).

Tested on: Energy system protein genes
Test: DNA chip mRNA expression in yeast, energy system protein genes (Table 4)
Type: cell-based, Saccharomyces cerevisiae S288C
Method in brief: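 In this screen, yeast in logarithmic growth are challenged for two hours with a toxic substance at a non-lethal inhibitory concentration. Their mRNA, converted to Cy3- or Cy5-labeled cDNA, hybridizes at 65° C. to a chip spanning every yeast gene, and expression is expressed as a ratio to untreated cells.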

O=[N+]([O-])c1cc[n+]([O-])c2ccccc12 [(5), 4-nitroquinolin-N-oxide]
The level of expressed mRNA in the presence of chemical substance/The level of expressed mRNA in the absence of chemical substance (yeast gene YJR009C): 1.2 | The level of expressed mRNA in the presence of chemical substance/The level of expressed mRNA in the absence of chemical substance (yeast gene YJR048W): 0.8 | The level of expressed mRNA in the presence of chemical substance/The level of expressed mRNA in the absence of chemical substance (yeast gene YJR121W, cells incubated two hours with the chemical substance): 0.8 | The level of expressed mRNA in the presence of chemical substance/The level of expressed mRNA in the absence of chemical substance (yeast gene YJR155W): 0.7 | The level of expressed mRNA in the presence of chemical substance/The level of expressed mRNA in the absence of chemical substance (yeast gene YKL016C, cells incubated two hours with the chemical substance): 1.5 | The level of expressed mRNA in the presence of chemical substance/The level of expressed mRNA in the absence of chemical substance (yeast gene YKL060C, cells incubated two hours with the chemical substance): 1.6 | The level of expressed mRNA in the presence of chemical substance/The level of expressed mRNA in the absence of chemical substance (yeast gene YKL141W, cells incubated two hours with the chemical substance): 1.5 | The level of expressed mRNA in the presence of chemical substance/The level of expressed mRNA in the absence of chemical substance (yeast gene YKL148C, cells incubated two hours with the chemical substance): 0.8 | The level of expressed mRNA in the presence of chemical substance/The level of expressed mRNA in the absence of chemical substance (yeast gene YKR009C, cells incubated two hours with the chemical substance): 1.0 | The level of expressed mRNA in the presence of chemical substance/The level of expressed mRNA in the absence of chemical substance (yeast gene YKR058W, cells incubated two hours with the chemical substance, 25° C., YPD medium): 0.8 | The level of expressed mRNA in the presence of chemical substance/The level of expressed mRNA in the absence of chemical substance (yeast gene YKR097W): 1.1 | The level of expressed mRNA in the presence of chemical substance/The level of expressed mRNA in the absence of chemical substance (yeast gene YLL041C, cells incubated two hours with the chemical substance): 1.6 | The level of expressed mRNA in the presence of chemical substance/The level of expressed mRNA in the absence of chemical substance (yeast gene YLR038C, cells incubated two hours with the chemical substance): 1.8 | The level of expressed mRNA in the presence of chemical substance/The level of expressed mRNA in the absence of chemical substance (yeast gene YLR044C, cells incubated two hours with the chemical substance): 1.7 | The level of expressed mRNA in the presence of chemical substance/The level of expressed mRNA in the absence of chemical substance (yeast gene YLR134W, cells incubated two hours with the chemical substance): 1.3 | The level of expressed mRNA in the presence of chemical substance/The level of expressed mRNA in the absence of chemical substance (yeast gene YLR258W, cells incubated two hours with the chemical substance): 0.9 | The level of expressed mRNA in the presence of chemical substance/The level of expressed mRNA in the absence of chemical substance (yeast gene YLR284C, cells incubated two hours with the chemical substance): 1.6 | The level of expressed mRNA in the presence of chemical substance/The level of expressed mRNA in the absence of chemical substance (yeast gene YLR295C, cells incubated two hours with the chemical substance, 25° C., YPD medium): 2.2 | The level of expressed mRNA in the presence of chemical substance/The level of expressed mRNA in the absence of chemical substance (yeast gene YLR304C, cells incubated two hours with the chemical substance): 0.6 | The level of expressed mRNA in the presence of chemical substance/The level of expressed mRNA in the absence of chemical substance (yeast gene YLR345W): 1.2 | The level of expressed mRNA in the presence of chemical substance/The level of expressed mRNA in the absence of chemical substance (yeast gene YLR354C, cells incubated two hours with the chemical substance): 1.6 | The level of expressed mRNA in the presence of chemical substance/The level of expressed mRNA in the absence of chemical substance (yeast gene YLR377C, cells incubated two hours with the chemical substance): 1.0 | The level of expressed mRNA in the presence of chemical substance/The level of expressed mRNA in the absence of chemical substance (yeast gene YLR395C, cells incubated two hours with the chemical substance): 0.7 | The level of expressed mRNA in the presence of chemical substance/The level of expressed mRNA in the absence of chemical substance (yeast gene YML087C): 0.9 | The level of expressed mRNA in the presence of chemical substance/The level of expressed mRNA in the absence of chemical substance (yeast gene YML120C, cells incubated two hours with the chemical substance): 0.6 | The level of expressed mRNA in the presence of chemical substance/The level of expressed mRNA in the absence of chemical substance (yeast gene YML129C, cells incubated two hours with the chemical substance): 1.7 | The level of expressed mRNA in the presence of chemical substance/The level of expressed mRNA in the absence of chemical substance (yeast gene YMR073C, cells incubated two hours with the chemical substance): 0.8 | The level of expressed mRNA in the presence of chemical substance/The level of expressed mRNA in the absence of chemical substance (yeast gene YMR118C): 1.2 | The level of expressed mRNA in the presence of chemical substance/The level of expressed mRNA in the absence of chemical substance (yeast gene YMR205C, cells incubated two hours with the chemical substance): 1.2 | The level of expressed mRNA in the presence of chemical substance/The level of expressed mRNA in the absence of chemical substance (yeast gene YMR261C, cells incubated two hours with the chemical substance): 0.9 | The level of expressed mRNA in the presence of chemical substance/The level of expressed mRNA in the absence of chemical substance (yeast gene YMR267W, cells incubated two hours with the chemical substance, 25° C., YPD medium): 1.0 | The level of expressed mRNA in the presence of chemical substance/The level of expressed mRNA in the absence of chemical substance (yeast gene YMR323W, cells incubated two hours with the chemical substance): 0.7 | The level of expressed mRNA in the presence of chemical substance/The level of expressed mRNA in the absence of chemical substance (yeast gene YNL071W): 0.6 | The level of expressed mRNA in the presence of chemical substance/The level of expressed mRNA in the absence of chemical substance (yeast gene YNL202W, cells incubated two hours with the chemical substance): 0.9 | The level of expressed mRNA in the presence of chemical substance/The level of expressed mRNA in the absence of chemical substance (yeast gene YNL241C): 0.8 | The level of expressed mRNA in the presence of chemical substance/The level of expressed mRNA in the absence of chemical substance (yeast gene YNL331C): 1.6 | The level of expressed mRNA in the presence of chemical substance/The level of expressed mRNA in the absence of chemical substance (yeast gene YOL086C, cells incubated two hours with the chemical substance): 1.9 | The level of expressed mRNA in the presence of chemical substance/The level of expressed mRNA in the absence of chemical substance (yeast gene YOL165C): 0.9 | The level of expressed mRNA in the presence of chemical substance/The level of expressed mRNA in the absence of chemical substance (yeast gene YOR142W, cells incubated two hours with the chemical substance): 1.4 | The level of expressed mRNA in the presence of chemical substance/The level of expressed mRNA in the absence of chemical substance (yeast gene YOR178C, cells incubated two hours with the chemical substance): 1.0 | The level of expressed mRNA in the presence of chemical substance/The level of expressed mRNA in the absence of chemical substance (yeast gene YOR388C, cells incubated two hours with the chemical substance): 1.3 | The level of expressed mRNA in the presence of chemical substance/The level of expressed mRNA in the absence of chemical substance (yeast gene YPL031C, cells incubated two hours with the chemical substance): 1.5 | The level of expressed mRNA in the presence of chemical substance/The level of expressed mRNA in the absence of chemical substance (yeast gene YPL061W, cells incubated two hours with the chemical substance): 1.6 | The level of expressed mRNA in the presence of chemical substance/The level of expressed mRNA in the absence of chemical substance (yeast gene YPL088W): 1.5 | The level of expressed mRNA in the presence of chemical substance/The level of expressed mRNA in the absence of chemical substance (yeast gene YPL171C): 1.1 | The level of expressed mRNA in the presence of chemical substance/The level of expressed mRNA in the absence of chemical substance (yeast gene YPL240C): 1.3 | The level of expressed mRNA in the presence of chemical substance/The level of expressed mRNA in the absence of chemical substance (yeast gene YPL262W, cells incubated two hours with the chemical substance): 0.6 | The level of expressed mRNA in the presence of chemical substance/The level of expressed mRNA in the absence of chemical substance (yeast gene YPL275W, cells incubated two hours with the chemical substance): 1.2 | The level of expressed mRNA in the presence of chemical substance/The level of expressed mRNA in the absence of chemical substance (yeast gene YPL276W, cells incubated two hours with the chemical substance): 1.5 | The level of expressed mRNA in the presence of chemical substance/The level of expressed mRNA in the absence of chemical substance (yeast gene YPR048W, cells incubated two hours with the chemical substance): 0.9 | The level of expressed mRNA in the presence of chemical substance/The level of expressed mRNA in the absence of chemical substance (yeast gene YPR184W, cells incubated two hours with the chemical substance): 0.9
